Measurements: article PMC4438233, “Antibacterial effects of Traditional Chinese Medicine monomers against Streptococcus pneumoniae via inhibiting pneumococcal histidine kinase (VicK)” (Frontiers in Microbiology, 2015)
Where “and” joins values, the source holds several entries; their conditions need not be identical. Equal values may be shown once. Read-outs that look alike come from different tables or passages of the source. Values belong to the compound of their own block, whether it stands above or below them.

What was measured:
full-length VicK protein = biological target: T1, full-length VicK protein (Streptococcus pneumoniae, UniProt Q8DPL8); assay: Inhibition assay for ATPase activity of VicK (Kinase-Glo Luminescent Kinase Assay); format: biochemical; conditions: 6 μg VicK, 5 μM ATP, read-out: IC50 (inhibition of VicK ATPase activity / autophosphorylation) (converted)
T1 construct: 6 His; made in house
T1 sequence (Q8DPL8 whole entry): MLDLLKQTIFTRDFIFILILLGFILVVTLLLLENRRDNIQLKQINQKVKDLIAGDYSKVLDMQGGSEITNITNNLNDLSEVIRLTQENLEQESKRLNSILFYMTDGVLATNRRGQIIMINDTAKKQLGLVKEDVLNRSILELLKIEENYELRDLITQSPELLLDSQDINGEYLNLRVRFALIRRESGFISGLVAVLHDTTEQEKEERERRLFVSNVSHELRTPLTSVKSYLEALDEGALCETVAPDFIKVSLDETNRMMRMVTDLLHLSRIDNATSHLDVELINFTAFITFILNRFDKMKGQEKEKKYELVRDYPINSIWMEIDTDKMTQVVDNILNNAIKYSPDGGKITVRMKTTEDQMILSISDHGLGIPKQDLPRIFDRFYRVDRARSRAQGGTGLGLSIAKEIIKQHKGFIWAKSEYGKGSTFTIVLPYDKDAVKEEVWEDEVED
Method: The inhibitory activities of the Chinese medicine monomers for the ATPase activity of the full-length VicK protein were evaluated using the Kinase-Glo™Luminescent Kinase Assay (Promega, Madison, USA). Briefly, 6 μg VicK protein was pre-incubated with a series of dilution of compounds in the reaction buffer at 37°C for 30 min. 5 μM ATP was added and incubated for another 30 min. Kinase-Glo™Reagent was also added to detect the remaining ATP recorded from luminescence measurements (RLU). In parallel, the VicK protein with no addition of compounds was used as a control, and the mixture with compounds excluding the VicK protein served as another control. The rate of protein phosphorylation (Rp) inhibition by the compounds was calculated from Equation (1).
(1) Rp=1−RLU(compound+ATP+Reagent) −RLU(compound+ATP+vick+Reagent)/RLU(ATP +Reagent)−RLU(ATP+vick+Reagent)×100%
The half maximal inhibitory concentration (IC50), which is the concentration of inhibition of 50% VicK protein autophosphorylation, was determined by GraphPad Prism 5 (Qin et al., [2006]).

S. pneumoniae NCTC7466 [1] = assay: MIC against S. pneumoniae NCTC7466 (D39); format: cell-based; conditions: Streptococcus pneumoniae
Method: (§1) Minimum inhibitory concentration (MIC) assays for the antibacterial activities of the compounds were performed according to the standard […] method of the Clinical and Laboratory Standards Institute of America. MIC testing of drug-resistant S. pneumoniae, drug-resistant S. aureus, streptococci and antimicrobial combination was also performed using the same method. Briefly, the drugs were serially diluted 2-fold into eight wells with C+Y medium, yielding final concentrations ranging from […]. Then 10^6 CFU bacteria were added to each well. Inoculated medium containing 1% DMSO served as a bacterial growth control, whereas uninoculated medium served as a sterility control. The plates were incubated at 37°C for 12–16 h. […] The experiment was repeated three times.

pneumococcal strains = assay: MIC against clinical pneumococcal strains (penicillin susceptible, intermediate, resistant); format: cell-based, Streptococcus pneumoniae; conditions: for MIC50 / MIC90: Streptococcus pneumoniae
Method: as §1

S. pyogenes = assay: MIC against S. pyogenes; format: cell-based; conditions: Streptococcus pyogenes
Method: as §1

S. mitis = assay: MIC against S. mitis; format: cell-based; conditions: Streptococcus mitis
Method: as §1

S. mutans = assay: MIC against S. mutans; format: cell-based; conditions: Streptococcus mutans
Method: as §1

S. pseudopneumoniae = assay: MIC against S. pseudopneumoniae; format: cell-based; conditions: Streptococcus pseudopneumoniae
Method: as §1

Cytotoxicity assay (MTT) = format: cell-based; conditions: African green monkey
Method: The cytotoxicity of the drugs to Vero cells (African green monkey kidney cells) was detected as previously described (Huang et al., [2012]) with minor modifications. In 96-well cell culture plates, the cells (~10^3 cells per well) were exposed to the serially diluted drugs for 48 h. Then, relative cell numbers were assayed by co-incubation with 3-(4, 5-dimethylthiazol-2-yl)-2, 5-diphenyltetrazolium bromide for 4 h at 37°C in 5% CO2. Purple formazan salts were dissolved with DMSO after incubation. The absorbance of each well was measured at 595 nm and then converted to percentages of the control (cells treated with 1% DMSO). The concentration of the derivatives with 50% cytotoxicity for Vero cells (CC50) was calculated using GraphPad Prism 5 (San Diego, CA).

S. pneumoniae NCTC7466 [2] = assay: Mouse sepsis model, survival time; format: in vivo, BALB/c mice; conditions: i.p. infection 1 × 10^3 CFU, drug i.p. thrice a day for 3 d, untreated control 28.8 ± 1.25
Method: Female BALB/c mice (12–15 per group) aged 4–6 weeks were used to evaluate the antimicrobial effects of the compounds in vivo. In sepsis models, the mice were intraperitoneally infected with 100 μL S. pneumoniae NCTC7466 strain suspension (1 × 10^3 CFU). […] Two control groups were injected with 100 μL 1% DMSO (dissolved the drugs, negative control) or PEN (0.42 mg/kg/d, positive control) following the same injection route. The result was expressed as cumulative survival times following 7 d of observation.

[3] = test system: Penicillin-resistant S. pneumoniae strains; assay: Checkerboard test with penicillin against penicillin-resistant S. pneumoniae; format: cell-based, Streptococcus pneumoniae; conditions: agent alone; for MIC: Streptococcus pneumoniae
Method: as §1
(§2) The antimicrobial effects of different combinations of two antimicrobial agents were assayed using the checkerboard test (Bajaksouzian et al., [1997]). Each experiment was repeated thrice. The in vitro interaction between the five drugs with PEN was quantified by the fractional inhibitory concentration (FIC). The FIC index (FICI) was calculated using the following formula:
(§3) (2) FIC=FICA+FICB=[A]/MICA+[B]/MICB
(§4) where [A] and [B] are the concentrations of drugs A and B, respectively; MICA and FICA are the MIC and FIC of drug A for the organism, respectively; and MICB, and FICB are the MIC and FIC of drug B for the organism, respectively. The FIC index obtained was interpreted as follows: =0.5, synergy; FIC > 2.0, antagonism (Gupta and Kohli, [2003]).

S. pneumoniae = assay: Checkerboard test with erythromycin or tetracycline against S. pneumoniae; format: cell-based, Streptococcus pneumoniae
Method: The antimicrobial effects of different combinations of two antimicrobial agents were assayed using the checkerboard test (Bajaksouzian et al., [1997]). Each experiment was repeated thrice. […] The FIC index (FICI) was calculated using the following formula:
as §3, §4

S. aureus = assay: Checkerboard test with penicillin against S. aureus; format: cell-based, Staphylococcus aureus; conditions: agent alone
Method: as §1, §2, §3, §4

[4] = test system: clinical S. pneumoniae 19A (CMCC31689); assay: Mouse colonization model, serotype 19A; format: in vivo, BALB/c mice; conditions: 19A
Method: (§5) In colonization models, the mice were intranasally challenged by 20 μL of clinical drug-resistant strains (pneumococcal serotype 19F or 19A, 1.5 × 10^8 CFU). An hour later, the mice were intraperitoneally injected with 100 μL drugs (2 × MIC) alone or in combination with PEN (2 × MIC). These injections were continued thrice a day for 3 d. Nasal wash and lung tissues were obtained to analyze the bacteria load at 24, 48, and 72 h after drug infection. Then 100 μL aliquots of the samples diluted were plated on blood agar plates. The colonies were counted after incubation overnight at 37°C with 5% CO2.

[5] = test system: clinical S. pneumoniae 19F (CMCC31693); assay: Mouse colonization model, serotype 19F; format: in vivo, BALB/c mice; conditions: 19F
Method: as §5

[6] = Penicillin intermediate (n = 12)
[7] = in combination with Erythromycin
[8] = in combination with Tetracycline

Compound: COC1=CC(=O)O[C@@H](/C=C/c2ccc3c(c2)OCO3)C1 [Compound 4, Kavahin]
- IC50 (full-length VicK protein): 4.6 µM
- IC50 (full-length VicK protein; value in parentheses): 4.56 µM
- MIC (S. pneumoniae NCTC7466 [1]; NCTC7466): 68.5 µg/mL and 250 µM
- MIC of pneumococcal strains, Range (pneumococcal strains; [6]): 68 to 518 µg/mL
- MIC of pneumococcal strains, Range (pneumococcal strains; Penicillin resistant (n = 15)): 68.5 to 548 µg/mL
- MIC of pneumococcal strains, Range (pneumococcal strains; Penicillin susceptible (n = 7)): 34 to 272 µg/mL
- MIC50 (pneumococcal strains; read-out: MIC of pneumococcal strains, MIC50, Penicillin intermediate (n = 12)): 137 µg/mL
- MIC50 (pneumococcal strains; read-out: MIC of pneumococcal strains, MIC50, Penicillin resistant (n = 15)): 274 µg/mL
- MIC50 (pneumococcal strains; read-out: MIC of pneumococcal strains, MIC50, Penicillin susceptible (n = 7)): 68.5 µg/mL
- MIC90 (pneumococcal strains; read-out: MIC of pneumococcal strains, MIC90, Penicillin intermediate (n = 12)): 274 µg/mL
- MIC90 (pneumococcal strains; read-out: MIC of pneumococcal strains, MIC90, Penicillin resistant (n = 15)): 548 µg/mL
- MIC90 (pneumococcal strains; read-out: MIC of pneumococcal strains, MIC90, Penicillin susceptible (n = 7)): 136 µg/mL
- MIC (S. pyogenes): 274 µg/mL
- MIC (S. mitis): 274 µg/mL
- MIC (S. mutans): 274 µg/mL
- MIC (S. pseudopneumoniae): 34 µg/mL
- CC50 at 48 h (Cytotoxicity assay (MTT); Vero cells): > 8000 µM
- Mean survival of mice ± SEM (S. pneumoniae NCTC7466 [2]; listed as Kavahin): 71.1 ± 7.1 h
- Mean survival of mice ± SEM (S. pneumoniae NCTC7466 [2]; listed as kavahin): 71 h
- MIC ([3]; read-out: MIC, Alone, strain 652336): 548 µg/mL
- MIC ([3]; read-out: MIC, Alone, strain 736007): 274 µg/mL
- MIC ([3]; read-out: MIC, Alone, strain 8364981): 548 µg/mL
- MIC ([3]; read-out: MIC, Alone, strain 12092624): 274 µg/mL
- FICI (S. pneumoniae; [7]): 0.5
- Outcome (S. pneumoniae; [7]): Synergy (=0.5, synergy)
- FICI (S. pneumoniae; [8]): 0.51

- MIC, Alone ([3]; strain 652336): 4.4 µg/mL
- MIC, Alone ([3]; strain 736007): 7.1 µg/mL
- MIC, Alone ([3]; strain 8364981): 3.56 µg/mL
- MIC, Alone ([3]; strain 12092624): 3.56 µg/mL
- MIC, Alone (S. aureus; MRSA8506305): 6682 µg/mL
- MIC, Alone (S. aureus; MRSA8548991): 3339 µg/mL
- MIC, Alone (S. aureus; S. aureus ATCC29213): 52 µg/mL
Compound: CC1(C)S[C@@H]2[C@H](NC(=O)Cc3ccccc3)C(=O)N2[C@H]1C(=O)O [Penicillin, penicillin, reference compound]
- Mean log CFU at site of infection ([4]; Lung, 24 h, control 4.85): 4.8 log CFU
- Mean log CFU at site of infection ([4]; Lung, 48 h, control 6.12): 4.5 log CFU
- Mean log CFU at site of infection ([4]; Lung, 72 h, control 6.29): 4.89 log CFU
- Mean log CFU at site of infection ([4]; NW (nasal wash), 24 h, i.p. three times a day for 3 days, control 7.29): 6.44 log CFU
- Mean log CFU at site of infection ([4]; NW, 48 h, control 5.97): 5.88 log CFU
- Mean log CFU at site of infection ([4]; NW, 72 h, control 6.01): 5.34 log CFU
- Mean log CFU at site of infection ([5]; Lung, 24 h, control 2.82): 1 log CFU
- Mean log CFU at site of infection ([5]; Lung, 48 h, control 7.57): 2.58 log CFU
- Mean log CFU at site of infection ([5]; Lung, 72 h, control 4.95): 3.22 log CFU
- Mean log CFU at site of infection ([5]; NW (nasal wash), 24 h, i.p. three times a day for 3 days, control 6.72): 6.21 log CFU
- Mean log CFU at site of infection ([5]; NW, 48 h, control 6.27): 2.1 log CFU
- Mean log CFU at site of infection ([5]; NW, 72 h, control 7.09): 6.12 log CFU

Compound: CSC[C@H]1O[C@@H](n2cnc3c(N)ncnc32)[C@H](O)[C@@H]1O [Compound 1, 5′-(Methylthio)-5′-deoxyadenosine]
- IC50 (full-length VicK protein): 3.8 µM
- IC50 (full-length VicK protein; value in parentheses): 3.77 µM
- MIC (S. pneumoniae NCTC7466 [1]; S. pneumoniae NCTC7466 (D39), read-out: MIC): 37.1 µg/mL
- MIC (S. pneumoniae NCTC7466 [1]; S. pneumoniae NCTC7466 (D39), value in parentheses, read-out: MIC): 124 µM
- MIC of pneumococcal strains, Range (pneumococcal strains; [6]): 74 to 594 µg/mL
- MIC of pneumococcal strains, Range (pneumococcal strains; Penicillin resistant (n = 15)): 296.8 to 593.6 µg/mL
- MIC of pneumococcal strains, Range (pneumococcal strains; Penicillin susceptible (n = 7)): 74 to 148 µg/mL
- MIC50 (pneumococcal strains; Penicillin intermediate (n = 12), read-out: MIC of pneumococcal strains, MIC50): 148 µg/mL
- MIC90 (pneumococcal strains; Penicillin intermediate (n = 12), read-out: MIC of pneumococcal strains, MIC90): 296 µg/mL
- MIC50 (pneumococcal strains; Penicillin resistant (n = 15), read-out: MIC of pneumococcal strains, MIC50): 297 µg/mL
- MIC90 (pneumococcal strains; Penicillin resistant (n = 15), read-out: MIC of pneumococcal strains, MIC90): 297 µg/mL
- MIC50 (pneumococcal strains; Penicillin susceptible (n = 7), read-out: MIC of pneumococcal strains, MIC50): 74 µg/mL
- MIC90 (pneumococcal strains; Penicillin susceptible (n = 7), read-out: MIC of pneumococcal strains, MIC90): 148 µg/mL
- MIC (S. pyogenes; S. pyogenes clinical isolate, 10^6 CFU/ml, read-out: MIC): 148 µg/mL
- MIC (S. mitis; S. mitis clinical isolate, 10^6 CFU/ml, read-out: MIC): 148 µg/mL
- MIC (S. mutans; S. mutans clinical isolate, 10^6 CFU/ml, read-out: MIC): 594 µg/mL
- MIC (S. pseudopneumoniae; S. pseudopneumoniae clinical isolate, 10^6 CFU/ml, read-out: MIC): 148 µg/mL
- CC50 at 48 h (Cytotoxicity assay (MTT); Vero cells (African green monkey kidney cells)): > 16000 µM
- Mean survival of mice ± SEM (S. pneumoniae NCTC7466 [2]): 49.5 ± 3.93 h
- MIC ([3]; strain 652336, read-out: MIC, Alone): 297 µg/mL
- MIC ([3]; strain 736007, read-out: MIC, Alone): 297 µg/mL
- MIC ([3]; strain 8364981, read-out: MIC, Alone): 148 µg/mL
- MIC ([3]; strain 12092624, read-out: MIC, Alone): 297 µg/mL
- FICI (S. pneumoniae; [7]): 2
- FICI (S. pneumoniae; [8]): 0.9
